In patent US10670605B2, “Cysteine reactive probes and uses thereof” (The Scripps Research Institute, priority 2015, dated 2020):

Key:
Test in all cases: Competitive isoTOP-ABPP, cell lysates
Assay type in all cases: binding
CDK5 C157 (Q00535) = CDK5 C157 (Q00535) (Homo sapiens, UniProt Q00535); details: 500 μM, invitro, ramos
PFKFB4 C159 (Q16877) = PFKFB4 C159 (Q16877) (Homo sapiens, UniProt Q16877); details: 500 μM, invitro, ramos
IRF8 C306 (Q02556) = molecular target: T1, IRF8 C306 (Q02556) (Homo sapiens, UniProt Q02556); details: 500 μM, invitro, ramos
T1 sequence (Q02556 1-426): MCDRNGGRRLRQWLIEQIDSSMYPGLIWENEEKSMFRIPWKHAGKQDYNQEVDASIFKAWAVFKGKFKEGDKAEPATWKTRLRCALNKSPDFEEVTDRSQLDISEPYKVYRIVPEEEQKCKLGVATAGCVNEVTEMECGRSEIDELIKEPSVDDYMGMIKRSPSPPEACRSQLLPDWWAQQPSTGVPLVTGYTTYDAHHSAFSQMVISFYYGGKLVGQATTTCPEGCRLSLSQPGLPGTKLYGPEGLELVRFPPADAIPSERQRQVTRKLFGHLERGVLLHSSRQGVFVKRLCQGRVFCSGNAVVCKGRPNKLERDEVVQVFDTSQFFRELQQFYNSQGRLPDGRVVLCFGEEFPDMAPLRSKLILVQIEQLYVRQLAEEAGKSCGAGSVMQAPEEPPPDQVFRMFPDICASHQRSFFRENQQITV

KDM4B C694 (O94953) = molecular target: T2, KDM4B C694 (O94953) (Homo sapiens, UniProt O94953); details: 500 μM
T2 sequence (O94953 1-1096): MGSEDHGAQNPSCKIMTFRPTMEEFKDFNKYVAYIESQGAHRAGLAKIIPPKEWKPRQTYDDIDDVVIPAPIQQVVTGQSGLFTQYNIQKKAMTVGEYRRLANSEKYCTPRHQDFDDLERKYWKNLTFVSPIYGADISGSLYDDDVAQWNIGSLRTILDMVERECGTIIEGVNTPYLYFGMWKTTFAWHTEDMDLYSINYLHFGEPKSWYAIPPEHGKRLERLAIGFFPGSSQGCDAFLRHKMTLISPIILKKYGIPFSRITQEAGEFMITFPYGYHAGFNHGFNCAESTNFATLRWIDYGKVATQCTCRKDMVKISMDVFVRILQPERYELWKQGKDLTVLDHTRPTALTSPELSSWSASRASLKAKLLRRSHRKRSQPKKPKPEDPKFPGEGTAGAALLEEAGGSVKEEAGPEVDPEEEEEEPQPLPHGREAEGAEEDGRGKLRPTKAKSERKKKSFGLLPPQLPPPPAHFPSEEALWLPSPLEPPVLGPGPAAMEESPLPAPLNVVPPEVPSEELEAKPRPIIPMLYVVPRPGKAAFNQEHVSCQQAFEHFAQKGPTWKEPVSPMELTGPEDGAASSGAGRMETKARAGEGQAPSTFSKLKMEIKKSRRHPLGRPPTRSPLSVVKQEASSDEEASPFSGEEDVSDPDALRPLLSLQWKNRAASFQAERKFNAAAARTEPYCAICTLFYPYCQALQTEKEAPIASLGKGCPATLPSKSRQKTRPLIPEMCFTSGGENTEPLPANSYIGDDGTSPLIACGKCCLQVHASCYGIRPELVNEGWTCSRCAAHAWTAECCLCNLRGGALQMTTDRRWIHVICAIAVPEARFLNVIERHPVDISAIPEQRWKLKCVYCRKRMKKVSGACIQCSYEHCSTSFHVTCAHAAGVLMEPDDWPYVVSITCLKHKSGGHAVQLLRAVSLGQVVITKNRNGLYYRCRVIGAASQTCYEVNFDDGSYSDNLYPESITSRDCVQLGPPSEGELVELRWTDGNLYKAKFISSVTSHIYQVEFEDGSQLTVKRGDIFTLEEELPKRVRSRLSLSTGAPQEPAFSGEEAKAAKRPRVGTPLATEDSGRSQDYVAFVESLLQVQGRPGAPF

USP16 C205 (Q9Y5T5) = USP16 C205 (Q9Y5T5) (Homo sapiens, UniProt Q9Y5T5); details: 500 μM, invitro
Chain of USP16 C205 (Q9Y5T5) (Q9Y5T5 whole entry): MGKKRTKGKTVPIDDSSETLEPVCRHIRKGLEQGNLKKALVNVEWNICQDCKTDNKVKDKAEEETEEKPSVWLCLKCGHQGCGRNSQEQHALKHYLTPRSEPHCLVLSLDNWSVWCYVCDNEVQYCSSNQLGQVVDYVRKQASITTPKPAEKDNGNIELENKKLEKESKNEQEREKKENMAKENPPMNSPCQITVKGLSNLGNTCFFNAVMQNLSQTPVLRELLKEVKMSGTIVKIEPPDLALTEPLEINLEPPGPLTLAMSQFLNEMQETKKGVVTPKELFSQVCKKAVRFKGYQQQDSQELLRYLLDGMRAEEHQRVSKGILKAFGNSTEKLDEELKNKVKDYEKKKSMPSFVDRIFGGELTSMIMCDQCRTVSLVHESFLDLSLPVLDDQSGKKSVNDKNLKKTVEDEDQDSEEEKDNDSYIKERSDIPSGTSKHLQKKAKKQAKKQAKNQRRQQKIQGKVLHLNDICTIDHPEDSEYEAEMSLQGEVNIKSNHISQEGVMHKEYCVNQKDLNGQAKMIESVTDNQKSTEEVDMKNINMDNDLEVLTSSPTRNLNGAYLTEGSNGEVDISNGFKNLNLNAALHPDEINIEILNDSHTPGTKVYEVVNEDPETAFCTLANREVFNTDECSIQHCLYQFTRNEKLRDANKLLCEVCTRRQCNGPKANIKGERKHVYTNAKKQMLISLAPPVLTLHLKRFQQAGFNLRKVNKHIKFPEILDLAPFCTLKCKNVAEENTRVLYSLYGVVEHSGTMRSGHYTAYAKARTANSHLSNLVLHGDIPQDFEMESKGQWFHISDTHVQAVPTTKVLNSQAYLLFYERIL

Chain of PFKFB4 C159 (Q16877) (Q16877 whole entry): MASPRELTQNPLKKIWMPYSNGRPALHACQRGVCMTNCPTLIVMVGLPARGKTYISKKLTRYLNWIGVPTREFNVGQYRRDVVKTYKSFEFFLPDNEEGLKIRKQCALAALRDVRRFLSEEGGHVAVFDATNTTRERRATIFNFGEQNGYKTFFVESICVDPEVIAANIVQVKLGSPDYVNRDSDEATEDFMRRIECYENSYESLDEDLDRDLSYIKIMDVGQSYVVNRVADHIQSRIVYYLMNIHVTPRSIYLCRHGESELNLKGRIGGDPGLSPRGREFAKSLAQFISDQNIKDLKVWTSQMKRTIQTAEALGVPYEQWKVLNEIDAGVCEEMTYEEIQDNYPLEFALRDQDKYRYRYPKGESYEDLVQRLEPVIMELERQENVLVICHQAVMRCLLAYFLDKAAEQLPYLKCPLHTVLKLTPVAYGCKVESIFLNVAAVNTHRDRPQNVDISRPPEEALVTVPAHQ
Chain of CDK5 C157 (Q00535) (Q00535 whole entry): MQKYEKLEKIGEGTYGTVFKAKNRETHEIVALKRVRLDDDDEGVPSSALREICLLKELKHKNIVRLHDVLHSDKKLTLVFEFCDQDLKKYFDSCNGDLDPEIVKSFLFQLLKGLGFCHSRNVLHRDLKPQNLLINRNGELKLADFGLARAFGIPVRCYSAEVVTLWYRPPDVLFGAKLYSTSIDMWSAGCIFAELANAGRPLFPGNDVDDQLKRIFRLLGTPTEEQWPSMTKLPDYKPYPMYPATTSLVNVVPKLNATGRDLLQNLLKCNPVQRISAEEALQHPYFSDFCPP

Compound | isoTOP-ABPP ratio, Q00535_C157 (CDK5 C157 (Q00535)) | isoTOP-ABPP ratio, Q16877_C159 (PFKFB4 C159 (Q16877)) | isoTOP-ABPP ratio, Q02556_C306 (IRF8 C306 (Q02556)) | isoTOP-ABPP ratio, O94953_C694 (KDM4B C694 (O94953); invitro, ramos) | isoTOP-ABPP ratio, Q9Y5T5_C205 (USP16 C205 (Q9Y5T5); 231) | R value (DMSO/fragment) (CDK5 C157 (Q00535)) | R value (DMSO/fragment) (PFKFB4 C159 (Q16877)) | R value (DMSO/fragment) (IRF8 C306 (Q02556)) | R value (DMSO/fragment) (KDM4B C694 (O94953); in vitro, MDA-MB-231) | R value (DMSO/fragment) (KDM4B C694 (O94953); invitro, ramos) | R value (DMSO/fragment) (USP16 C205 (Q9Y5T5); ramos)
Cn1cc(S(=O)(=O)N2CCOCC2)cc1C(=O)NC(=O)CCl [compound 11] | 1.3 | 0.6 | 3.1 | 1.9 | 20.0 | – | – | – | – | – | –
O=C(CCl)Nc1cc(C(F)(F)F)cc(C(F)(F)F)c1 [compound 3] | – | – | – | – | – | 20.0 | 12.9 | 5.6 | 20.0 | 7.4 | 8.8
